Measured values: patent US10806726B2, “Methods of using indazole-3-carb oxamides and their use as Wnt/B-catenin signaling pathway inhibitors” (Samumed, LLC, priority 2016, dated 2020)

Columns and labels:
[1] = system: Wnt-responsive promoter driving firefly luciferase in SW480 cells; test: Wnt reporter (SP5 promoter-luciferase) screening assay in SW480 cells; format: cell-based; details: Homo sapiens, 24-40 h, top concentration ten micromolar
Source text: Another screening assay for Wnt activity is described as follows. Reporter cell lines can be generated by stably transducing cells of cancer cell lines (e.g., colon cancer) with a lentiviral construct that include a Wnt-responsive promoter driving expression of the firefly luciferase gene.
Lentiviral constructs can be made in which the SP5 promoter, a promoter having eight TCF/LEF binding sites derived from the SP5 promoter, is linked upstream of the firefly luciferase gene. The lentiviral constructs can also include a hygromycin resistance gene as a selectable marker. The SP5 promoter construct can be used to transduce SW480 cells, a colon cancer cell line having a mutated APC gene that generates a truncated APC protein, leading to de-regulated accumulation of β-catenin.
Cultured SW480 cells bearing a reporter construct can be distributed at approximately 10,000 cells per well into 96 well or 384 well plates. Compounds from a small molecule compound library can then be added to the wells in half-log dilutions using a ten micromolar top concentration. A series of control wells for each cell type receive only buffer and compound solvent. Twenty-four to forty hours after the addition of compound, reporter activity for luciferase can be assayed, for example, by addition of the BrightGlo luminescence reagent (Promega) and the Victor3 plate reader (Perkin Elmer). Readings can be normalized to DMSO only treated cells, and normalized activities can then be used in the EC50 calculations.

[2] = system: primary human mesenchymal stem cells (hMSCs); test: Tenocyte differentiation screening in hMSCs (SCXA-positive cells, 4 days); format: cell-based; details: 96 h, fold change over DMSO
Source text: Representative compounds were screened using primary human mesenchymal stem cells (hMSCs) to determine their ability to induce tenocyte differentiation (process by which tendon is developed).
Primary human mesenchymal stem cells (hMSCs) were purchased from Lonza (Walkersville, Md.) and expanded in Mesenchymal Stem Cell Growth Media (Lonza). Cells between passage 3 and 6 were used for the experiments.
Cells were fixed using 4% formaldehyde (Electron Microscopy Sciences), and stained with anti-Sclerasis (anti-SCXA) antibodies (Abgent, San Diego, Calif.) [Webb S., et. al., Retinoic acid receptor signaling preserves tendon stem cell characteristics and prevents spontaneous differentiation in vitro, Stem Cell Research & Therapy 2016, 7:45] overnight at 4° C. […] Number of cells positive for SCXA in each well was quantified using the Celllnsight CX5. Data was normalized to the average of 12 DMSO treated wells on the same plate using Dotmatics Studies module. The normalized averages (fold change over DMSO) of 3 replicate wells for each compound concentration were calculated. Due to solubility limitations of some of the compounds, values for higher doses were manually corrected and curve fitting and EC50 determinations were performed using Dotmatics Studies.
EC50 for each compound is reported.

| EC50 [1] [nM] | EC50 [2] [µM] | Compound |
| --- | --- | --- |
| 16 | > 100 | N#Cc1ccc(NC(=O)c2n[nH]c3ccc(-c4cncc(CN5CCCCC5)c4)cc23)cn1 [compound 62, N-(6-Cyanopyridin-3-yl)-5-(5-(piperidin-1-ylmethyl)pyridin-3-yl)-1H-indazole-3-carboxamide] |
| 100 | 10.2 | O=C(Nc1ccc(C(F)(F)F)nc1)c1n[nH]c2ccc(-c3cncc(CN4CCCCC4)c3)cc12 [compound 63, 5-(5-(Piperidin-1-ylmethyl)pyridin-3-yl)-N-(6-(trifluoromethyl)pyridin-3-yl)-1H-indazole-3-carboxamide] |
| 6 | 7.66 | O=C(Nc1cccnc1)c1n[nH]c2ccc(-c3cncc(CN4CCOCC4)c3)cc12 [compound 64, 5-(5-(Morpholinomethyl)pyridin-3-yl)-N-(pyridin-3-yl)-1H-indazole-3-carboxamide] |
| 101 | > 100 | O=C(Nc1ccc(-c2ccccc2)nc1)c1n[nH]c2ccc(-c3cncc(CN4CCCCC4)c3)cc12 [compound 65, N-(6-Phenylpyridin-3-yl)-5-(5-(piperidin-1-ylmethyl)pyridin-3-yl)-1H-indazole-3-carboxamide] |
| ≥ 10000 | > 100 | N#Cc1cncc(-c2ccc3[nH]nc(C(=O)Nc4cccnc4)c3c2)c1 [compound 66, 5-(5-Cyanopyridin-3-yl)-N-(pyridin-3-yl)-1H-indazole-3-carboxamide] |
| ≥ 10000 | > 100 | O=C(Nc1cccnc1)c1n[nH]c2ccc(-c3cc(F)cc(CN4CCCCC4)c3)cc12 [compound 67, 5-(3-Fluoro-5-(piperidin-1-ylmethyl)phenyl)-N-(pyridin-3-yl)-1H-indazole-3-carboxamide] |
| 48 | 4.61 | O=C(Nc1ccc(C(F)(F)F)nc1)c1n[nH]c2ccc(-c3cncc(CN4CCOCC4)c3)cc12 [compound 68, 5-(5-(Morpholinomethyl)pyridin-3-yl)-N-(6-(trifluoromethyl)pyridin-3-yl)-1H-indazole-3-carboxamide] |
| 50 | 12.5 | O=C(Nc1ccc(N2CCOCC2)nc1)c1n[nH]c2ccc(-c3cncc(CN4CCCCC4)c3)cc12 [compound 69, N-(6-Morpholinopyridin-3-yl)-5-(5-(piperidin-1-ylmethyl)pyridin-3-yl)-1H-indazole-3-carboxamide] |
| 41 | 10.8 | CN1CCN(c2ccc(NC(=O)c3n[nH]c4ccc(-c5cncc(CN6CCCCC6)c5)cc34)cn2)CC1 [compound 70, N-(6-(4-Methylpiperazin-1-yl)pyridin-3-yl)-5-(5-(piperidin-1-ylmethyl)pyridin-3-yl)-1H-indazole-3-carboxamide] |
| 25 | > 100 | O=C(Nc1ccc(N2CCCC2)nc1)c1n[nH]c2ccc(-c3cncc(CN4CCCCC4)c3)cc12 [compound 71, 5-(5-(Piperidin-1-ylmethyl)pyridin-3-yl)-N-(6-(pyrrolidin-1-yl)pyridin-3-yl)-1H-indazole-3-carboxamide] |
| 215 | > 100 | O=C(Nc1ccc(-c2cccc(F)c2)nc1)c1n[nH]c2ccc(-c3cncc(CN4CCCCC4)c3)cc12 [compound 72, N-(6-(3-Fluorophenyl)pyridin-3-yl)-5-(5-(piperidin-1-ylmethyl)pyridin-3-yl)-1H-indazole-3-carboxamide] |
| 322 | > 100 | O=C(Nc1ccc(-c2ccc(F)cc2)nc1)c1n[nH]c2ccc(-c3cncc(CN4CCCCC4)c3)cc12 [compound 73, N-(6-(4-Fluorophenyl)pyridin-3-yl)-5-(5-(piperidin-1-ylmethyl)pyridin-3-yl)-1H-indazole-3-carboxamide] |
| 65 | 10.2 | CN(C)CCN(C)c1ccc(NC(=O)c2n[nH]c3ccc(-c4cncc(CN5CCCCC5)c4)cc23)cn1 [compound 74, N-(6-((2-(Dimethylamino)ethyl)(methyl)amino)pyridin-3-yl)-5-(5-(piperidin-1-ylmethyl)pyridin-3-yl)-1H-indazole-3-carboxamide] |
| 40 | 12.4 | O=C(Nc1ccnnc1)c1n[nH]c2ccc(-c3cncc(CN4CCCCC4)c3)cc12 [compound 75, 5-(5-(Piperidin-1-ylmethyl)pyridin-3-yl)-N-(pyridazin-4-yl)-1H-indazole-3-carboxamide] |
| 850 | 2.67 | O=C(NCc1cccnc1)c1n[nH]c2ccc(-c3cncc(CN4CCCCC4)c3)cc12 [compound 76, 5-(5-(Piperidin-1-ylmethyl)pyridin-3-yl)-N-(pyridin-3-ylmethyl)-1H-indazole-3-carboxamide] |
| 2650 | 6.08 | O=C(NC1CCCCC1)c1n[nH]c2ccc(-c3cncc(CN4CCCCC4)c3)cc12 [compound 77, N-Cyclohexyl-5-(5-(piperidin-1-ylmethyl)pyridin-3-yl)-1H-indazole-3-carboxamide] |
| 239 | > 100 | O=C(Nc1ccc2c(c1)OCO2)c1n[nH]c2ccc(-c3cncc(CN4CCCCC4)c3)cc12 [compound 78, N-(Benzo[d][1,3]dioxol-5-yl)-5-(5-(piperidin-1-ylmethyl)pyridin-3-yl)-1H-indazole-3-carboxamide] |
| 123 | > 100 | O=C(Nc1ccc2c(c1)OCCO2)c1n[nH]c2ccc(-c3cncc(CN4CCCCC4)c3)cc12 [compound 79, N-(2,3-Dihydrobenzo[b][1,4]dioxin-6-yl)-5-(5-(piperidin-1-ylmethyl)pyridin-3-yl)-1H-indazole-3-carboxamide] |
| 158 | > 100 | O=C(Nc1cncc(Cc2ccccc2)c1)c1n[nH]c2ccc(-c3cncc(CN4CCCCC4)c3)cc12 [compound 80, N-(5-Benzylpyridin-3-yl)-5-(5-(piperidin-1-ylmethyl)pyridin-3-yl)-1H-indazole-3-carboxamide] |
| 77 to 142 | > 100 | O=C(Nc1cnccn1)c1n[nH]c2ccc(-c3cncc(CN4CCCCC4)c3)cc12 [compound 81, 5-(5-(Piperidin-1-ylmethyl)pyridin-3-yl)-N-(pyrazin-2-yl)-1H-indazole-3-carboxamide] |
| 143 to 188 | > 100 | O=C(Nc1ccccc1)c1n[nH]c2ccc(-c3cncc(CN4CCCCC4)c3)cc12 [compound 82, N-Phenyl-5-(5-(piperidin-1-ylmethyl)pyridin-3-yl)-1H-indazole-3-carboxamide] |
| 2500 to 3400 | > 100 | CN1CCN(C(=O)c2n[nH]c3ccc(-c4cncc(CN5CCCCC5)c4)cc23)CC1 [compound 83, (4-Methylpiperazin-1-yl)(5-(5-(piperidin-1-ylmethyl)pyridin-3-yl)-1H-indazol-3-yl)methanone] |
| 822 to 898 | > 100 | C[C@@H]1CCC[C@H](C)N1Cc1cncc(-c2ccc3[nH]nc(C(=O)Nc4cccnc4)c3c2)c1 [compound 84, 5-(5-(((2R,6 S)-2,6-Dimethylpiperidin-1-yl)methyl)pyridin-3-yl)-N-(pyridin-3-yl)-1H-indazole-3-carboxamide] |
| 66 | 5.27 | CN(C)Cc1cncc(NC(=O)c2n[nH]c3ccc(-c4cncc(CN5CCCCC5)c4)cc23)c1 [compound 86, N-(5-((Dimethylamino)methyl)pyridin-3-yl)-5-(5-(piperidin-1-ylmethyl)pyridin-3-yl)-1H-indazole-3-carboxamide] |
